From US12479822B2, “AHR agonists” (Eli Lilly and Company, priority 2021, dated 2025)
Where a name gives a salt, the structure may show the parent alone.

The compounds below were run against T1, Human AHR (Homo sapiens, UniProt P35869) (assay: hAHR Nuclear Translocation Assay). Details: Jump-In T-REx HEK293 cells expressing AhR-EGFP chimera; 45 minutes incubation; ratio of EGFP fluorescent intensity in nuclear over cytosol; 20-point curve.
T1 construct: expressed in transfected cells
T1 sequence (P35869 11-848): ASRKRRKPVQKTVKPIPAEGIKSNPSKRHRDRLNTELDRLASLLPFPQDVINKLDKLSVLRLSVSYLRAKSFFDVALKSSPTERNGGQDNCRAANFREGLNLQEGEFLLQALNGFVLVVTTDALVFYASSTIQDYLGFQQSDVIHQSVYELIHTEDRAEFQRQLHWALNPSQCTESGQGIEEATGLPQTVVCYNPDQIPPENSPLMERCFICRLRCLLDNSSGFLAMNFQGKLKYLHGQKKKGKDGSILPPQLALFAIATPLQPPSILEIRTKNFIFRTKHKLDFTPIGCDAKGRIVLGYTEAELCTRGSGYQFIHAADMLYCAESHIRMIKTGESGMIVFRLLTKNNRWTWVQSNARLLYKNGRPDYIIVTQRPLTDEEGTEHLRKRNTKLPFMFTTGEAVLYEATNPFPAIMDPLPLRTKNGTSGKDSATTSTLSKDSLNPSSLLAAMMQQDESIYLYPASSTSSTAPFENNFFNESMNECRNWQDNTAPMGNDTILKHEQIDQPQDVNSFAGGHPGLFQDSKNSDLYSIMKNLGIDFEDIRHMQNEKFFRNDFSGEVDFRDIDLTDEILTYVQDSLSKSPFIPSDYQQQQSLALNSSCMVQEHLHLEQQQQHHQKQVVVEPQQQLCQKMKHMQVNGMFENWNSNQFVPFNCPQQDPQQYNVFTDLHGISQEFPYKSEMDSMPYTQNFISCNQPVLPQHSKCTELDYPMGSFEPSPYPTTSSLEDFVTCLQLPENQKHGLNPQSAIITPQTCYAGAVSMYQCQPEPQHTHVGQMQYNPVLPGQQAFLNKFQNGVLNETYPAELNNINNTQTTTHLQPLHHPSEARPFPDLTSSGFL
Type: cell-based
Experimental: Stable cell lines were established using Jump-In™ T-REx™ HEK293 Retargeting Kit (Life Technologies). Human AHR cDNA was cloned into the pJTI R4 CMV-TO EGFP vector. The EGFP was cloned to the C-terminal of AHR to form AhR-EGFP chimera. The pJTI R4 CMV-TO AhR-EGFP vector was transfected using FuGENE® HD into Jump-In™ T-REx™ HEK293 cells. Transfected cells were selected using 2.5 mg/ml G418 for 10 to 14 days, then expanded, harvested, and suspended in freeze media (FBS with 8% DMSO) at 2×10^7 cells/ml, and aliquots were stored in liquid nitrogen. […] On the assay date, compound was serially diluted (1:2) into 384-well nunc plates with DMSO using acoustic dispensing (ECHO). The dose response was a 20-point curve. Compound was resuspended in 40 μl of DMEM plus 0.1% BSA. The culture media was damped and 25 μl of DMEM plus 0.1% BSA was added, then 25 μl of compound in DMEM plus 0.1% BSA was added into cell plates. Cells were incubated with compounds at 37° C. and 5% CO2 for 45 minutes. The final DMSO concentration was 0.2%. The media was damped after 45 minutes of incubation. The cells were fixed with 40 μl of cold methanol (−20° C.) for 20 minutes. The methanol was damped and 50 μl of DPBS containing 1 μg/ml Hochst was added into the cell plates. The intensity of EGFP was quantitated by using OPERA PHENIX® or Operetta™ high content image system (Perkin Elmer) with 20× Water Objective and five field per well. The ratio of EGFP fluorescent intensity in nuclear over cytosol was analyzed using a 4-parameter nonlinear logistic equation to determine the potency of AHR agonists.
Work on `Cn1c(=O)c(C(=O)Nc2ncc(F)cn2)cc2c(NCCO)cccc21` [Example 68, N-(5-Fluoropyrimidin-2-yl)-5-(2-hydroxyethylamino)-1-methyl-2-oxo-quinoline-3-carboxamide] yielded an EC50 of 81.2 nM.
For `Cc1ccc(NC(=O)c2cc3cccc4c3n(c2=O)CC4)nc1` [Example 41, N-(5-Methyl-2-pyridyl)-11-oxo-1-azatricyclo[6.3.1.04, 12]dodeca-4(12),5,7,9-tetraene-10-carboxamide], the EC50 was 6.24 nM.
`CN(C)CCNc1cccc2c1cc(C(=O)Nc1ncc(F)cn1)c(=O)n2C` [Example 57, 5-[2-(Dimethylamino)ethylamino]-N-(5-fluoropyrimidin-2-yl)-1-methyl-2-oxo-quinoline-3-carboxamide] gave an EC50 of 62.8 nM.
`Cn1cc(NC(=O)c2cc3ccccc3n(C)c2=O)cn1` [Example 27, hydrochloride] was tested, and the EC50 was 10.6 nM.
Work on `Cn1c(=O)c(C(=O)Nc2ccccc2)cc2ccc(NCCO)cc21` [Example 70, 7-(2-Hydroxyethylamino)-1-methyl-2-oxo-N-phenyl-quinoline-3-carboxamide] yielded an EC50 of 15.1 nM.
`CN(C)CCNc1ccc2c(c1)cc(C(=O)Nc1ccccc1)c(=O)n2C` [Example 49, 6-[2-(Dimethylamino)ethylamino]-1-methyl-2-oxo-N-phenyl-quinoline-3-carboxamide] showed an EC50 of 9 nM.
`Cn1c(=O)c(C(=O)Nc2ncccc2F)cc2ccccc21` [Example 28, N-(3-Fluoro-2-pyridyl)-1-methyl-2-oxo-quinoline-3-carboxamide] showed an EC50 of 1.91 nM.
With `Cn1c(=O)c(C(=O)Nc2ccc(F)cc2)cc2ccccc21` [Example 4, N-(4-Fluorophenyl)-1-methyl-2-oxo-quinoline-3-carboxamide] the EC50 was 0.214 nM.
`Cc1ccc(NC(=O)c2cc3cccc4c3n(c2=O)CC4)cc1` [Example 29, 11-Oxo-N-(p-tolyl)-1-azatricyclo[6.3.1.04,12]dodeca-4(12),5,7,9-tetraene-10-carboxamide] showed an EC50 of 0.57 nM.
Compound `Cc1ccc(NC(=O)c2cc3ccccc3n(C)c2=O)nc1` [Example 20, 1-Methyl-N-(5-methyl-2-pyridyl)-2-oxo-quinoline-3-carboxamide] has an EC50 of 0.675 nM.
With `Cn1c(=O)c(C(=O)Nc2cccc(F)c2)cc2ccccc21` [Example 23, N-(3-Fluorophenyl)-1-methyl-2-oxo-quinoline-3-carboxamide] the EC50 was 0.601 nM.
In the case of `O=C(Nc1ccc(F)cc1)c1cc2cccc3c2n(c1=O)CC3` [Example 30, N-(4-Fluorophenyl)-11-oxo-1-azatricyclo[6.3.1.04,12]dodeca-4(12),5,7,9-tetraene-10-carboxamide], the EC50 is reported as 0.511 nM.
`COc1cnc(NC(=O)c2cc3ccccc3n(C)c2=O)nc1` [Example 15, N-(5-Methoxypyrimidin-2-yl)-1-methyl-2-oxo-quinoline-3-carboxamide] gave an EC50 of 14.2 nM.
Work on `Cc1cccc(NC(=O)c2cc3ccccc3n(C)c2=O)n1` [Example 19, 1-Methyl-N-(6-methyl-2-pyridyl)-2-oxo-quinoline-3-carboxamide] yielded an EC50 of 25.8 nM.
In the case of `COc1ccc(NC(=O)c2cc3ccc(C)cc3n(C)c2=O)cc1` [Example 44, N-(4-Methoxyphenyl)-1,7-dimethyl-2-oxo-quinoline-3-carboxamide], the EC50 is reported as 0.595 nM.
For `CN(C)CCNc1ccc2c(c1)cc(C(=O)Nc1ccccn1)c(=O)n2C` [Example 55, 6-[2-(Dimethylamino)ethylamino]-1-methyl-2-oxo-N-(2-pyridyl)quinoline-3-carboxamide], the EC50 was 40.6 nM.
Compound `Cn1c(=O)c(C(=O)Nc2ccccc2)cc2cc(OCCO)ccc21` [Example 58, 6-(2-Hydroxyethoxy)-1-methyl-2-oxo-N-phenyl-quinoline-3-carboxamide] has an EC50 of 7.45 nM.
Compound `COc1ccc(NC(=O)c2cc3ccc(N(C)C)cc3n(C)c2=O)cc1` [Example 47, 7-(Dimethylamino)-N-(4-methoxyphenyl)-1-methyl-2-oxo-quinoline-3-carboxamide] has an EC50 of 18 nM.
With `COc1ccc(NC(=O)c2cc3cccnc3n(C)c2=O)cc1` [Example 35, N-(4-Methoxyphenyl)-1-methyl-2-oxo-1,8-naphthyridine-3-carboxamide] the EC50 was 2.29 nM.
`Cn1c(=O)c(C(=O)Nc2ccccc2)cc2c(NCCO)cccc21` [Example 63, 5-(2-Hydroxyethylamino)-1-methyl-2-oxo-N-phenyl-quinoline-3-carboxamide] showed an EC50 of 1.91 nM.
Compound `COc1ccc(NC(=O)c2cc3cccc4c3n(c2=O)CC4)cc1` [Example 26, N-(4-Methoxyphenyl)-11-oxo-1-azatricyclo[6.3.1.04,12]dodeca-4(12),5,7,9-tetraene-10-carboxamide] has an EC50 of 0.701 nM.
Work on `Cn1c(=O)c(C(=O)Nc2ccccn2)cc2ccccc21` [Example 9, 1-Methyl-2-oxo-N-(2-pyridyl)quinoline-3-carboxamide] yielded an EC50 of 0.613 nM.
For `COc1ccc(NC(=O)c2cc3ccc(C4CC4)cc3n(C)c2=O)cc1` [Example 45, 7-Cyclopropyl-N-(4-methoxyphenyl)-1-methyl-2-oxo-quinoline-3-carboxamide], the EC50 was 2.14 nM.
`Cn1c(=O)c(C(=O)Nc2ncccn2)cc2ccccc21` [Example 39, 1-Methyl-2-oxo-N-pyrimidin-2-yl-quinoline-3-carboxamide] gave an EC50 of 3.52 nM.
With `CN(C)CCNc1cccc2c1cc(C(=O)Nc1ccc(F)cn1)c(=O)n2C` [Example 51, 5-[2-(Dimethylamino)ethylamino]-N-(5-fluoro-2-pyridyl)-1-methyl-2-oxo-quinoline-3-carboxamide] the EC50 was 16.4 nM.
`COc1cccc(NC(=O)c2cc3ccccc3n(C)c2=O)n1` [Example 21, N-(6-Methoxy-2-pyridyl)-1-methyl-2-oxo-quinoline-3-carboxamide] showed an EC50 of 10.8 nM.
Work on `Cn1c(=O)c(C(=O)Nc2ccc(F)cn2)cc2ccccc21` [Example 22, N-(5-Fluoro-2-pyridyl)-1-methyl-2-oxo-quinoline-3-carboxamide] yielded an EC50 of 0.389 nM.
For `CNc1ccc2cc(C(=O)Nc3ccc(OC)cc3)c(=O)n(C)c2c1` [Example 46, N-(4-Methoxyphenyl)-1-methyl-7-(methylamino)-2-oxo-quinoline-3-carboxamide], the EC50 was 2.21 nM.
For `COc1ccc(NC(=O)c2cc3ccccc3n(C)c2=O)cc1OC` [Example 3, N-(3,4-Dimethoxyphenyl)-1-methyl-2-oxo-quinoline-3-carboxamide], the EC50 was 0.837 nM.
`COc1ccc(NC(=O)c2cc3ccccc3n(C)c2=O)cc1` [Example 1, N-(4-Methoxyphenyl)-1-methyl-2-oxo-quinoline-3-carboxamide] showed an EC50 of 0.304 nM.
`O=C(Nc1ncccn1)c1cc2cccc3c2n(c1=O)CC3` [Example 38, 11-Oxo-N-pyrimidin-2-yl-1-azatricyclo[6.3.1.04,12]dodeca-4(12),5,7,9-tetraene-10-carboxamide] showed an EC50 of 6.34 nM.
In the case of `O=C(Nc1ccccn1)c1cc2cccc3c2n(c1=O)CC3` [Example 42, 11-Oxo-N-(2-pyridyl)-1-azatricyclo[6.3.1.04,12]dodeca-4(12),5,7,9-tetraene-10-carboxamide], the EC50 is reported as 3.96 nM.
`Cn1c(=O)c(C(=O)Nc2ccc(F)cc2)cc2cccnc21` [Example 18, N-(4-Fluorophenyl)-1-methyl-2-oxo-1,8-naphthyridine-3-carboxamide] showed an EC50 of 0.468 nM.
In the case of `Cc1ccc(NC(=O)c2cc3ccccc3n(C)c2=O)cc1` [Example 5, 1-Methyl-2-oxo-N-(p-tolyl) quinoline-3-carboxamide], the EC50 is reported as 0.0971 nM.
